Measurements reported in patent US12037339B2, “Substituted imidazoles as GLP-1 receptor agonists” (Eccogene Inc., priority 2020, dated 2024).

Target: (Homo sapiens, UniProt P43220)
Experiment: h-GLP-1 activity assay (cAMP HTRF, HEK293 cells with stable expression of human GLP-1)
Format: cell-based
Conditions: relative EC50, 10 nM human GLP-1 set as 100% response, 30 min at 37° C.
Method: Human GLP-1 agonizing activity was detected in HEK293 cells with stable expression of human GLP-1 by Cisbio cAMP Gs dynamic kit (Catalog #62AM4PEC) according to manufacturer's protocol. Briefly, cells were collected and resuspended in assay buffer containing 0.1% BSA and 0.5 mM of IBMX at concentration to 2.5×10^5 cells/mL. Two μL 5× compound solution and 8 μL cell suspension were added to each well of low-volume 384 white assay plate. After 30 min incubation at 37° C., 5 μL cAMP-d2 working solution and 5 μL anti-cAMP antibody-cryptate were added to each well, and incubate at room temperature for 1 hr. Series dilution of cAMP was used as standard. Human GLP-1 (7-37) was used as positive control and 10 nM human GLP-1 was set as 100% response. HTRF signals were read at 665 and 615 nm with EnVision plate reader and calculated cAMP concentration by interpolation to the standard curve. The EC50 value of the tested compounds was calculated by fitting the dose response curve using a 4-parameter non-linear regression routine and relative EC50 was presented in Table 29.

Sequence of (Homo sapiens, UniProt P43220) (P43220 24-463): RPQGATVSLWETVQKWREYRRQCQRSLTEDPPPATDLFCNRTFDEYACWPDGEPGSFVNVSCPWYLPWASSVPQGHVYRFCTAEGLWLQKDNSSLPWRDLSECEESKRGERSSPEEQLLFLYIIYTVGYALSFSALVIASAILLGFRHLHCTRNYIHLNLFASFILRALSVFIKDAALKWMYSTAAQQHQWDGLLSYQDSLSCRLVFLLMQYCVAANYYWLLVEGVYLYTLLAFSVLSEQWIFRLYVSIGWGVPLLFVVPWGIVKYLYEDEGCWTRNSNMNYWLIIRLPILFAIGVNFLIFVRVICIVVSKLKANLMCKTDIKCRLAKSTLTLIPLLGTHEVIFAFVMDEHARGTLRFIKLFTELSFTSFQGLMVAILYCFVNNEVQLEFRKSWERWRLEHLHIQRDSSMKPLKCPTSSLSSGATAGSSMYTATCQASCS

Compound	EC50 [nM]
CC1c2c(-n3ccn(-c4ccc5c(cnn5C)c4F)c3=O)c(-c3ccc(F)cc3)nn2CCN1C(=O)c1cn2cc(C3CCOCC3)ccc2c1C1(c2noc(=O)[nH]2)CC1 (racemic) [Compound 23, 3-(1-(2-(3-(3-(4-fluoro-1-methyl-1H-indazol-5-yl)-2-oxo-2,3-dihydro-1H-imidazol-1-yl)-2-(4-fluorophenyl)-4-methyl-4,5,6,7-tetrahydropyrazolo[1,5-a]pyrazine-5-carbonyl)-6-(tetrahydro-2H-pyran-4-yl)indolizin-1-yl)cyclopropyl)-1,2,4-oxadiazol-5(4H)-one]	20 to 100
Cc1cc(-n2nc3c(c2-n2ccn(-c4ccc5c(cnn5C)c4F)c2=O)[C@H](C)N(C(=O)c2cc4cc(C5CCOC(C)(C)C5)ccc4n2-c2cccc(-c4noc(=O)[nH]4)c2)CC3)cc(C)c1F (mixture of isomers) [Compound 30, 3-(3-(5-(2,2-dimethyltetrahydro-2H-pyran-4-yl)-2-((S)-3-(3-(4-fluoro-1-methyl-1H-indazol-5-yl)-2-oxo-2,3-dihydro-1H-imidazol-1-yl)-2-(4-fluoro-3,5-dimethylphenyl)-4-methyl-4,5,6,7-tetrahydro-2H-pyrazolo[4,3-c]pyridine-5-carbonyl)-1H-indol-1-yl)phenyl)-1,2,4-oxadiazol-5(4H)-one]	20 to 100
Cc1cc(-n2nc3c(c2-n2ccn(-c4ccc5c(cnn5C)c4F)c2=O)CN(C(=O)c2cc4cc(C5CCOC(C)(C)C5)ccc4n2Cc2nnc(O)s2)CC3)cc(C)c1F (racemic) [Compound 35, 1-(5-(5-(2,2-dimethyltetrahydro-2H-pyran-4-yl)-1-((5-hydroxy-1,3,4-thiadiazol-2-yl)methyl)-1H-indole-2-carbonyl)-2-(4-fluoro-3,5-dimethylphenyl)-4,5,6,7-tetrahydro-2H-pyrazolo[4,3-c]pyridin-3-yl)-3-(4-fluoro-1-methyl-1H-indazol-5-yl)-1,3-dihydro-2H-imidazol-2-one]	> 100
Cc1cc(-n2nc3c(c2-n2ccn(-c4ccc5c(cnn5C)c4F)c2=O)CN(C(=O)c2cc4cc(C5CCOC(C)(C)C5)ccc4n2Cc2cc(O)no2)CC3)cc(C)c1F (racemic) [Compound 36, 1-(5-(5-(2,2-dimethyltetrahydro-2H-pyran-4-yl)-1-((3-hydroxyisoxazol-5-yl)methyl)-1H-indole-2-carbonyl)-2-(4-fluoro-3,5-dimethylphenyl)-4,5,6,7-tetrahydro-2H-pyrazolo[4,3-c]pyridin-3-yl)-3-(4-fluoro-1-methyl-1H-indazol-5-yl)-1,3-dihydro-2H-imidazol-2-one]	> 100
Cc1cc(-n2nc3c(c2-n2ccn(-c4ccc5c(cnn5C)c4F)c2=O)CN(C(=O)c2cc4cc(C5CCOC(C)(C)C5)ccc4n2Cc2cc(O)ns2)CC3)cc(C)c1F (racemic) [Compound 42, 1-(5-(5-(2,2-dimethyltetrahydro-2H-pyran-4-yl)-1-((3-hydroxyisothiazol-5-yl)methyl)-1H-indole-2-carbonyl)-2-(4-fluoro-3,5-dimethylphenyl)-4,5,6,7-tetrahydro-2H-pyrazolo[4,3-c]pyridin-3-yl)-3-(4-fluoro-1-methyl-1H-indazol-5-yl)-1,3-dihydro-2H-imidazol-2-one]	> 100
Cc1cc(-n2nc3c(c2-n2ccn(-c4ccc5c(cnn5C)c4F)c2=O)[C@H](C)N(C(=O)c2cc4cc(C5CCOC(C)(C)C5)ccc4n2C2(c4nnc(O)s4)CC2)CC3)cc(C)c1F (mixture of isomers) [Compound 47, 1-((4S)-5-(5-(2,2-dimethyltetrahydro-2H-pyran-4-yl)-1-(1-(5-hydroxy-1,3,4-thiadiazol-2-yl)cyclopropyl)-1H-indole-2-carbonyl)-2-(4-fluoro-3,5-dimethylphenyl)-4-methyl-4,5,6,7-tetrahydro-2H-pyrazolo[4,3-c]pyridin-3-yl)-3-(4-fluoro-1-methyl-1H-indazol-5-yl)-1,3-dihydro-2H-imidazol-2-one]	< 20
